In PubChem BioAssay AID179 (DTP/NCI, 2004):
Where “and” joins values, the source holds several entries; their conditions need not be identical. Identical values can stand only once. Calls of active or inactive are those of the source.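 Rule for the calls: active = compounds giving half or more protection of infected cells from virus-caused growth loss, again on retest; inactive = the rest.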

System: CEM cells HIV-1 protection, formazan growth assay
Assay: NCI AIDS Antiviral Assay
Conditions: for IC50: measured here: growth of uninfected CEM cells
Method in brief: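 Human CEM cells, uninfected and HIV-1-infected, exposed to five drug concentrations; growth measured by soluble formazan assay and scored as percent protection from infection, with protecting compounds retested.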

| Structure (SMILES) | EC50 | IC50 | outcome |
| --- | --- | --- | --- |
| C=C(C)C(CC=C(C)C)CC12CC(CC=C(C)C)C(C)(C)C(CC=C(C)C)(C(=O)C(Cc3ccc(O)c(O)c3)=C1O)C2=O (centres undefined) | > 200 µM | 158 µM |  |
| C=C(c1ccccc1)c1ccccc1-c1cc(-c2ccccc2)cc(-c2ccccc2)n1 | > 200 µM | 25.1 µM |  |
| CCOC(=O)C1Sc2c(c(=O)n(C)c3ccccc23)C1=O (centres undefined) | > 16.6 µM | 12 µM |  |
| COc1ccc(C=NC23CC4CC(CC(C4)C2)C3)cc1 | > 95.5 µM | > 95.5 µM |  |
| CC1(C)OC(=O)C(C#N)=C1/C=C1\OC(=O)c2ccccc21 | > 178 µM | 52.5 µM |  |
| NC(N)=NCCC(O)(P(=O)(O)O)P(=O)(O)O | > 200 µM | > 200 µM |  |
| CS(=O)(=O)N/N=C/CN1C(=O)c2ccccc2C1=O | > 891 µM | > 891 µM |  |
| COc1cc2c(cc1OC)NCC1COc3c(ccc(OC)c3OC)C1=N2 (centres undefined) | > 200 µM | 117 µM |  |
| O=C(O)[C@@H]1CSC(C(O)C(O)C(O)CO)N1 (some centres undefined) | > 355 µM | > 355 µM |  |
| COC(=O)c1c2c(n(CCO)c1OC)C(=O)c1ccccc1C2=O | > 200 µM | 81.3 µM |  |
| COc1ccccc1C1C=NNC1 (centres undefined) | > 200 µM | 107 µM |  |
| [N-]=[N+]=Nc1cc(=O)n(-c2ccccc2)c(=O)n1-c1ccccc1 | > 200 µM | > 200 µM |  |
| O=[N+]([O-])C(Cl)C(Cl)C(Cl)=C(Cl)Cl (centres undefined) | > 200 µM | > 200 µM |  |
| Cn1cnc([N+](=O)[O-])c1Sc1nccn1-c1cccc2ccccc12 | > 102 µM | 13.2 µM |  |
| CSc1csc(-c2ccc(-c3ccc(-c4cc(SC)cs4)s3)s2)c1 | > 100 µM | > 100 µM |  |
| Cc1cc(C)nc(NS(=O)(=O)c2ccc(Nc3c4ccccc4nc4ccc(C(=O)Nc5ccc(S(N)(=O)=O)cc5)cc34)cc2)n1 | > 200 µM | 89.1 µM |  |
| CN1C(=O)/C(=C2\SC(=O)N(CN3CCCCC3)C2=O)c2cc(Br)ccc21 | > 200 µM | 91.2 µM |  |
| CC1=NN(C(=O)CC(=O)Nc2ccc(C)cc2)C(=O)C1N=Nc1ccc(C(=O)O)cc1 (centres undefined) | > 200 µM | 39.8 µM |  |
| N#Cc1c(N=Cc2ccccc2)c(C(=O)Nc2ccccc2)n2c1CCC2 | > 50.1 µM | > 50.1 µM |  |
| CCCCCCCCCCCCCCCC=C(c1cc(Cl)c(OC)c(C(=O)OC)c1)c1cc(Cl)c(OC)c(C(=O)OC)c1 | > 6.61 µM | > 6.61 µM |  |
| CC1N=C(SCC(=O)c2ccc(F)cc2)N2C(C)N=C(SCC(=O)c3ccc(F)cc3)N12 (centres undefined) | > 75.9 µM | > 75.9 µM |  |

| Structure (SMILES) | EC50 | IC50 | outcome |
| --- | --- | --- | --- |
| OCCC(N1CCOCC1)C(O)(c1ccccc1)c1ccccc1 (centres undefined) | > 200 µM | > 200 µM |  |
| Cc1ccc(S(=O)(=O)O/N=C(/CC/C(=N\OS(=O)(=O)c2ccc(C)cc2)c2ccccc2)c2ccccc2)cc1 | > 437 µM | > 437 µM |  |
| Clc1ccc(/C=C/c2nc3ccccc3s2)cc1Cl | > 200 µM | 83.2 µM |  |
| O=C1CSC(Cc2nc3ccccc3[nH]2)=N1 | > 30.9 µM | > 30.9 µM |  |
| NC1=NNC(=O)C1N=Nc1ccc(S(=O)(=O)Nc2nccs2)cc1 (centres undefined) | > 200 µM | > 200 µM |  |
| CC(CC[C@@]1(C)C(=O)CCC2O[C@]21C)[C@H]1C[C@@H](c2ccoc2)OC1=O (some centres undefined) | > 200 µM | 34.7 µM |  |
| CN(C)c1nncc2n[nH]nc12 | > 200 µM | > 200 µM |  |
| C=CC(C)(C)c1cc(O)c2oc3c(O)cccc3c(=O)c2c1O | > 151 µM | 37.2 µM |  |
| O=S1c2ccccc2-c2ccccc21 | > 447 µM | > 447 µM |  |
| CCC1(CC)C(=O)N(C(=O)c2ccc(C)cc2)N(C(=O)c2ccc(C)cc2)C1=O | > 200 µM | 20.4 µM |  |
| COc1cc2oc(=O)cc(C)c2c(OC)c1OC | > 200 µM | > 200 µM |  |
| CCOC(=O)c1c2ccccc2n2c(=O)n(C)nnc12 | > 200 µM | > 200 µM |  |
| O=C1NC(=O)C(C(=O)C(=O)Nc2cccc(C(F)(F)F)c2)C(=O)N1 | > 39.8 µM | > 39.8 µM |  |
| Cc1cc(NS(=O)(=O)c2ccc(N=c3c4ccccc4n(Cc4ccccc4)c4ccccc34)cc2)no1 |  |  | inactive |
| CC1CCP(=O)(c2ccccc2)C1 (centres undefined) | > 1290 µM | > 1290 µM |  |
| COc1c(-c2ccc(F)cc2)oc2c(CC(=O)O)cccc2c1=O | > 200 µM | 162 µM |  |
| CCOC(=O)c1nc2ccc(C(F)(F)F)cc2nc1Oc1cc(OC)c(OC)c(OC)c1 | > 100 µM | > 100 µM |  |
| O=[N+]([O-])c1cccc(C2=NON(c3ncccn3)C3N=CC=CN23)c1 (centres undefined) | > 5.89 µM | > 5.89 µM |  |
| COC(=O)c1nc(-c2nc(CCNC(=O)OC(C)(C)C)sc2Cl)sc1Cl | > 4.27 µM | > 4.27 µM |  |
| O=C(NC1C=Nc2ccc([N+](=O)[O-])cc2NC1=O)c1cc(Cl)cc([N+](=O)[O-])c1 (centres undefined) | > 447 µM | 155 µM |  |
| NC(N)=NCCN1CC2CCC(CC2)C1 | 61.7 µM | 151 µM |  |

| Structure (SMILES) | EC50 | IC50 | outcome |
| --- | --- | --- | --- |
| C=C1CN(S(=O)(=O)c2ccc(C)cc2)CCCN(Cc2ccc(C)o2)CCCN(S(=O)(=O)c2ccc(C)cc2)C1 | > 200 µM | > 200 µM |  |
| CC(=O)Nc1ccc(C(=O)CCC(NC(C)=O)(C(=O)O)C(=O)O)cc1 | > 200 µM | > 200 µM |  |
| CCCCCCCCCCCCCCCC=C(c1cc(Br)cc(C(=O)OC)c1OC)c1cc(Br)cc(C(=O)OC)c1OC | > 25.7 µM | > 25.7 µM |  |
| O=C(CSc1nc2[nH]ncc2c(=O)[nH]1)c1ccc(Cl)cc1 | > 200 µM | > 200 µM |  |
| Cc1cc(=O)[nH]c(NN2C(Cl)C(=O)C2c2ccc(O)cc2)n1 (centres undefined) | > 42.7 µM | 6.76 µM |  |
| CC1OC(n2cnc3c(N)nc(Cl)nc32)C(C)(O)C1O (centres undefined) |  |  | inactive |
| C=C(CC[C@@H](O)C(Cl)CO)[Si](C)(C)C (some centres undefined) | > 110 µM | > 110 µM |  |
| NS(=O)(=O)c1ccc(CNC(=O)c2ccccc2SC(=O)CCCCC[n+]2ccccc2)cc1 | 2.14 µM | 39.8 µM |  |
| O=C1c2c(ccc3c2CCC3)CC12Cc1ccccc1C2 | > 200 µM | > 200 µM |  |
| CC(=O)c1c(-c2cccc3ccccc23)c(C#N)c(=S)n(C2OC(CO)C(O)C(O)C2O)c1C (centres undefined) | > 200 µM | 132 µM and 53.7 µM |  |
| N#Cc1c(-c2ccc([N+](=O)[O-])cc2)c(=O)oc2cc(O)ccc12 | > 100 µM | 74.1 µM |  |
| CN1CCN(C(=O)c2cccc3cccc(C(=O)O)c23)CC1 | > 832 µM | 724 µM |  |
| CN(CCO)c1nc2c(c(=O)[nH]1)CCC2 | > 240 µM | > 240 µM |  |
| Nc1ccc2ncc(Nc3ccc(F)cc3)nc2c1 | > 269 µM | 135 µM |  |
| COc1cc(-c2ccc(N=Nc3cc(S(=O)(=O)O)c4ccccc4c3N)c(OC)c2)ccc1N=Nc1cc(S(=O)(=O)O)c2ccccc2c1N | 13.2 µM | 155 µM |  |
| C1CSCCCSCCCSCCCSC1 | > 33.9 µM | > 33.9 µM |  |
| CCN(CC)/C(=C\Cl)Nc1ccccn1 | > 759 µM | 117 µM |  |
| O=C(CN1CCCCC1)N1CCc2c([nH]c3ccccc23)C1c1cccnc1 (centres undefined) | > 26.9 µM | > 26.9 µM |  |
| NC(=O)c1coc(C2OC(CO)C(O)C2O)n1 (centres undefined) | > 1020 µM | > 1020 µM |  |
| N/N=C(\C(=O)Nc1ccc([N+](=O)[O-])cc1)C(C1=Nc2cc([N+](=O)[O-])ccc2NC1)[N+](=O)[O-] (centres undefined) | > 30.9 µM | > 30.9 µM |  |
| CCCCCCCCCCCCCCCC[N+]1(C)CC2CCCCC2C1 (centres undefined) | > 2 µM | 0.55 µM |  |
